Key:
[1] = system: bacterial colonies; test: Industrial cooling tower water, standard immersion test kit; conditions: about 1 ppm CoF3 with about 10 ppm KPS, about 1,000 gallons of water, after 24 hours
Text: An industrial cooling tower containing about 1,000 gallons of water tested positive for a high bacterial colony count using a standard immersion test kit.

[2] = system: coliform; test: AOAC culture test of contaminated water, coliform counts; assay type: cell-based; conditions: about 2 PPM XeF2 with about 20 PPM KPS, pH about 7, 37.4 cfu/mL
Procedure: (§1) These and other aspects of the present invention may be more fully understood with reference to the following examples, which are merely illustrative of the preferred embodiments of the present invention, and are not to be construed as limiting the invention, the scope of which is defined by the appended claims. Unless otherwise indicated, antimicrobial evaluations of the various fluorinator compounds tested were performed versus control samples in cultures in accordance with the protocol as set forth in AOAC (15th) 1990:965:13 at colony densities indicated in the examples.
Contaminated water was prepared and measured to have AOAC coliform counts averaging 37.4 colony forming units per milliliter (cfu/mL). The water was treated by first adding crystal potassium monopersulfate (KPS) stabilizer, commercially available from E.I. DuPont de Nemours & Co. Corp. as OXONE®, and xenon difluoride (XeF2). The concentration in solution of the KPS and XeF2 was about 20 PPM and about 2 PPM respectively, and the pH of the treated solution was about 7.

[3] = system: salmonella; test: AOAC culture test of aqueous solutions with salmonella contamination; assay type: cell-based; conditions: ten minutes exposure
Procedure: Unless otherwise indicated, antimicrobial evaluations of the various fluorinator compounds tested were performed versus control samples in cultures in accordance with the protocol as set forth in AOAC (15th) 1990:965:13 at colony densities indicated in the examples.
Aqueous solutions were prepared having a salmonella contamination at a cell density of about 500,000 cfu/mL. Two solutions of XeF2 were prepared: one as a 1% solution in 85% phosphoric acid stabilizer, and a second solution containing no stabilizer. The materials were cultured versus controls at concentrations of about 2 ppm and about 4 ppm XeF2 and at a pH of about 9.

[4] = system: E. Coli ATCC 81377; test: Hand soap base culture test; assay type: cell-based; conditions: about 5 ppm XeF2 in hand soap base, about 320,000 cfu/mL, 30 seconds exposure
Procedure: as §1
(§2) A hand soap base was prepared comprising an aqueous mixture of coconut fatty acid amide and sodium lauryl sulfate surfactants. XeF2 was incorporated into the hand soap base at a level of about 5 ppm and four separate cultures containing various microbes at a level of about 320,000 cfu/mL were evaluated.

[5] = system: Staph Aureus (Methicillin resistance); test: Hand soap base culture test; assay type: cell-based; conditions: about 5 ppm XeF2 in hand soap base, about 320,000 cfu/mL, 30 seconds exposure
Procedure: as §1, §2

[6] = system: Enterococcus Faecalis (Vancomycin resistance); test: Hand soap base culture test; assay type: cell-based; conditions: about 5 ppm XeF2 in hand soap base, about 320,000 cfu/mL, 30 seconds exposure
Procedure: as §1, §2

[7] = system: Salmonella ATC 14; test: Hand soap base culture test; assay type: cell-based; conditions: about 5 ppm XeF2 in hand soap base, about 320,000 cfu/mL, 30 seconds exposure
Procedure: as §1, §2

SMILES	immersion kit test result on cooling tower water [1]	coliform inhibited ([2]; 5 minutes exposure)	coliform inhibited ([2]; 10 minutes exposure)	inhibition ([3]; about 2 ppm XeF2, pH about 9, about 500,000 cfu/mL)	inhibition ([3]; about 4 ppm XeF2, pH about 9, about 500,000 cfu/mL)	Inhibition (%) [4] [%]	Inhibition (%) [5] [%]	Inhibition (%) [6] [%]	Inhibition (%) [7] [%]
[F][Co]([F])[F] [CoF3, cobalt trifluoride]	complete destruction of bacterial colonies	–	–	–	–	–	–	–	–
F[Xe]F [XeF2, xenon difluoride]	–	about 73%	about 77%	about 13.2%	about 96.4%	99.9	99.5	99.9	99.9

Reference: patent US6579541B2, “Oxidative fluorinator compounds as antimicrobials” (priority 2000, dated 2003)
